# Test results reported in ChEMBL document CHEMBL1671659, “In vitro and in vivo properties of dihydrophthalazine antifolates, a novel family of antibacterial drugs” (Antimicrob Agents Chemother, 2009).
# The source made the active and inactive calls. No cut-off for these calls is given here.
# What was measured:
# Enterococcus faecium [1] = experiment: Antibacterial activity against vancomycin-sensitive dfrE, dfrF-negative and folA-positive Enterococcus faecium; format: functional
# Streptococcus pneumoniae [2] = experiment: Antibacterial activity against Streptococcus pneumoniae in presence of 50 ug/ml thymidine; format: functional
# Streptococcus pneumoniae [3] = experiment: Antibacterial activity against Streptococcus pneumoniae
# Mus musculus [4] = experiment: Toxicity in po dosed NMRI mouse; format: organism-based; conditions: in vivo
# Enterococcus faecium [5] = experiment: Antibacterial activity against Enterococcus faecium in presence of 250 ug/ml thymidine; format: functional
# [6] = Tmax in NMRI mouse blood at 25 mg/kg administered through oral gavage measured after 7 hrs; format: ADME, organism-based; design: dose 25 mg/kg, route oral
# Staphylococcus aureus [7] = experiment: Antibacterial activity against methicillin-resistant dfrA within SCCmec-N1, dfrA and dfrG -negative Staphylococcus aureus harboring F98Y mutation in dfrB gene; format: functional
# Dihydrofolate reductase = Dihydrofolate reductase (Staphylococcus aureus, UniProt P0A017, F99Y); experiment: Inhibition of trimethoprim-resistant Staphylococcus aureus DfrB type dihydrofolate reductase F98Y mutant
# Staphylococcus aureus [8] = experiment: Antibacterial activity against trimethoprim-sensitive Staphylococcus aureus ATCC 29213 infected in NMRI mouse model of septicemia; format: functional
# [9] = system: Staphylococcus epidermidis; experiment: Antibacterial activity against methicillin, vancomycin-sensitive and trimethoprim-resistant Staphylococcus epidermidis BAS000635 harboring dfrC and dfrA genes; format: functional
# Staphylococcus aureus [10] = experiment: Antibacterial activity against trimethoprim-sensitive Staphylococcus aureus ATCC 29213 infected in NMRI mouse model of septicemia assessed as complete protection from infections at 3.1 mg/kg, iv; format: functional, organism-based; design: dose 3.1 mg/kg
# Enterococcus faecalis [11] = experiment: Antibacterial activity against Enterococcus faecalis in presence of 50 ug/ml thymidine; format: functional
# Enterococcus faecium [12] = experiment: Antibacterial activity against Enterococcus faecium; format: functional
# Mycobacterium avium [13] = experiment: Antibacterial activity against Mycobacterium avium assessed as inhibition of bacterial growth at <=4 ug/ml; format: functional; design: scale not given: the % may be the effect or the level left
# [14] = system: Staphylococcus epidermidis; experiment: Antibacterial activity against methicillin-sensitive dfrC, dfrA-positive and dfrD-negative Staphylococcus epidermidis; format: functional
# Staphylococcus aureus [15] = experiment: Antibacterial activity against trimethoprim-sensitive Staphylococcus aureus ATCC 29213; format: functional
# Staphylococcus aureus [16] = experiment: Antibacterial activity against trimethoprim-resistant Staphylococcus aureus BAS003908 infected in NMRI mouse model of septicemia; format: functional
# [17] = system: Staphylococcus epidermidis; experiment: Antibacterial activity against methicillin-sensitive dfrA-positive and dfrD-negative Staphylococcus epidermidis harboring F98Y mutation in dfrC gene; format: functional
# Streptococcus pneumoniae [18] = experiment: Antibacterial activity against Streptococcus pneumoniae in presence of 250 ug/ml thymidine; format: functional
# Staphylococcus aureus [19] = experiment: Antibacterial activity against methicillin-resistant dfrB, dfrG-positive and dfrA-negative Staphylococcus aureus; format: functional
# Enterococcus faecalis [20] = experiment: Antibacterial activity against Enterococcus faecalis; format: functional
# Enterococcus faecium [21] = experiment: Antibacterial activity against vancomycin-resistant dfrE-negative and folA, dfrF-positive Enterococcus faecium; format: functional
# Haemophilus influenzae [22] = experiment: Antibacterial activity against Haemophilus influenzae in presence of 250 ug/ml thymidine; format: functional
# Enterococcus faecalis [23] = experiment: Antibacterial activity against vancomycin-sensitive dfrE, dfrF-positive and folA-negative Enterococcus faecalis; format: functional
# Enterococcus faecium [24] = experiment: Antibacterial activity against Enterococcus faecium in presence of 50 ug/ml thymidine; format: functional
# [25] = system: Staphylococcus epidermidis; experiment: Antibacterial activity against methicillin-sensitive dfrA, dfrD-negative Staphylococcus epidermidis harboring F98Y mutation in dfrC gene; format: functional
# Enterococcus faecalis [26] = experiment: Antibacterial activity against Enterococcus faecalis in presence of 250 ug/ml thymidine; format: functional
# HeLa = experiment: Cytotoxicity against human HeLa cells; format: cell-based
# Haemophilus influenzae [27] = experiment: Antibacterial activity against Haemophilus influenzae in presence of 50 ug/ml thymidine
# [28] = Cmax in NMRI mouse blood at 25 mg/kg administered through oral gavage measured after 7 hrs; format: ADME, organism-based; design: dose 25 mg/kg, route oral
# [29] = system: Staphylococcus epidermidis; experiment: Antibacterial activity against methicillin-sensitive dfrC-positive and dfrA, dfrD-negative Staphylococcus epidermidis; format: functional
# Staphylococcus aureus [30] = experiment: Antibacterial activity against methicillin, vancomycin, trimethoprim-sensitive Staphylococcus aureus ATCC 29213 harboring dfrB gene; format: functional
# [31] = AUC (0 to t) in NMRI mouse blood at 25 mg/kg administered through oral gavage after 7 hrs; format: ADME, organism-based; design: time < 7 hr, dose 25 mg/kg, route oral
# Enterococcus faecium [32] = experiment: Antibacterial activity against vancomycin-resistant dfrE, dfrF-negative and folA-positive Enterococcus faecium; format: functional
# Staphylococcus aureus [33] = experiment: Antibacterial activity against methicillin-sensitive dfrB-positive abd dfrA, dfrG-negative Staphylococcus aureus; format: functional
# Staphylococcus aureus [34] = experiment: Antibacterial activity against vancomycin, trimethoprim-sensitive and methicillin-resistant Staphylococcus aureus ATCC 43300 harboring dfrB gene; format: functional
# Enterococcus faecalis [35] = experiment: Antibacterial activity against vancomycin-sensitive folA, dfrF-negative Enterococcus faecalis harboring A5T, K88N, F102Y mutation in dfrE gene; format: functional
# Haemophilus influenzae [36] = experiment: Antibacterial activity against Haemophilus influenzae; format: functional
# [37] = Oral bioavailability in NMRI mouse; format: ADME, organism-based; conditions: in vivo
# Staphylococcus aureus [38] = experiment: Antibacterial activity against vancomycin, trimethoprim, methicillin-resistant Staphylococcus aureus VRS1 harboring dfrA and dfrB genes; format: functional
# Staphylococcus aureus [39] = experiment: Antibacterial activity against trimethoprim-resistant Staphylococcus aureus BAS003908; format: functional
# [40] = Inhibition of trimethoprim-sensitive Staphylococcus aureus DfrB type dihydrofolate reductase
# Staphylococcus aureus [41] = experiment: Antibacterial activity against trimethoprim-sensitive Staphylococcus aureus ATCC 29213 infected in NMRI mouse model of septicemia assessed as succumbed to infections at 1.6 mg/kg, iv; format: functional, organism-based; design: dose 1.6 mg/kg
# Mus musculus [42] = experiment: Hepatotoxicity in NMRI mouse assessed as increase in liver weight at 400 mg/kg administered through oral gavage for 5 days; format: toxicity, organism-based; design: dose 400 mg/kg, route oral; conditions: in vivo, 120 h
# Staphylococcus aureus [43] = experiment: Antibacterial activity against methicillin-resistant dfrB, dfrA-positive and dfrA within SCCmec-N1, dfrG-negative Staphylococcus aureus; format: functional
# [44] = system: Staphylococcus epidermidis; experiment: Antibacterial activity against methicillin-resistant dfrC, dfrA-positive and dfrA within SCCmec-N1, dfrD-negative Staphylococcus epidermidis; format: functional
# [45] = system: Staphylococcus epidermidis; experiment: Antibacterial activity against methicillin, vancomycin, trimethoprim-sensitive Staphylococcus epidermidis ATCC 14990 harboring dfrC gene; format: functional
# Mycobacterium avium [46] = experiment: Antibacterial activity against Mycobacterium avium; format: functional
compound,measurement,setting,value
COc1cc(Cc2cnc(N)nc2N)cc(/C=C/C(=O)N2N=Cc3ccccc3C2c2cnc(N(C)C)nc2)c1OC (centres undefined),MIC,Enterococcus faecium [1],≤ 0.25 µg/mL
same,MIC,Streptococcus pneumoniae [2],32 µg/mL
same,MIC,Streptococcus pneumoniae [3],≥ 128 µg/mL
same,Activity,Mus musculus [4],400 mg/kg
same,MIC,Enterococcus faecium [5],≥ 128 µg/mL
same,Tmax,[6],2 h
same,MIC,Staphylococcus aureus [7],1 µg/mL
same,IC50,Dihydrofolate reductase,70.2 nM
same,ED50,Staphylococcus aureus [8],1.6 mg/kg
same,MIC,[9],2 µg/mL
same,Activity,Staphylococcus aureus [10],Active
same,MIC,Enterococcus faecalis [11],≤ 0.25 µg/mL
same,MIC,Enterococcus faecium [12],2 µg/mL
same,Activity,Mycobacterium avium [13],77%
same,MIC,[14],1 µg/mL
same,MIC,Staphylococcus aureus [15],1 µg/mL
same,ED50,Staphylococcus aureus [16],3.1 mg/kg
same,MIC,[17],1 µg/mL
same,MIC,Streptococcus pneumoniae [18],≥ 128 µg/mL
same,MIC,Staphylococcus aureus [19],64 µg/mL
same,MIC,Enterococcus faecalis [20],0.5 µg/mL
same,MIC,Enterococcus faecium [21],> 128 µg/mL
same,MIC,Haemophilus influenzae [22],32 µg/mL
same,MIC,Enterococcus faecalis [23],> 128 µg/mL
same,MIC,Enterococcus faecium [24],≥ 128 µg/mL
same,MIC,[25],1 µg/mL
same,MIC,Enterococcus faecalis [26],1 µg/mL
same,IC50,HeLa,12000 nM
same,MIC,Haemophilus influenzae [27],≥ 128 µg/mL
same,Cmax,[28],5390 ng/mL
same,MIC,[29],< 0.25 µg/mL
same,MIC,Staphylococcus aureus [30],0.5 µg/mL
same,AUC(0-t) at 7 h,[31],23400 ng·h/mL
same,MIC,Enterococcus faecium [32],2 µg/mL
same,MIC,Staphylococcus aureus [33],1 µg/mL
same,MIC,Staphylococcus aureus [34],1 µg/mL
same,MIC,Enterococcus faecalis [35],0.5 µg/mL
same,MIC,Haemophilus influenzae [36],> 128 µg/mL
same,bioavailability,[37],26%
same,MIC,Staphylococcus aureus [38],2 µg/mL
same,MIC,Staphylococcus aureus [39],1 µg/mL
same,IC50,[40],11.3 nM
same,Activity,Staphylococcus aureus [41],inactive
same,Activity,Mus musculus [42],< 10%
same,MIC,Staphylococcus aureus [43],1 µg/mL
same,MIC,"Staphylococcus aureus [43]; Staphylococcus aureus, read-out: MIC",2 µg/mL
same,MIC,[44],0.5 µg/mL
same,MIC,[45],0.25 µg/mL
Nc1ccc(S(=O)(=O)c2ccc(N)cc2)cc1 [DAPSONE],MIC,Mycobacterium avium [46],< 16 µg/mL
